As usually defined, the pIC50 is the IC50 on a negative log10 scale, so that one unit is a factor of ten.

Consider three molecules from patent publication US20250026776A1, “Method for Simultaneously Separating and Purifying Two Galloylated Myricitrins from Morella rubra Leaves, and Use therefor” (Zhejiang University, priority 2022, published 2025).

pIC50: −log10 of the molar value. Read-outs that look alike come from different tables or passages of the source.

Test [1] addresses α-glucosidase. Description: α-glucosidase inhibition assay (PNPG hydrolysis, absorbance at 405 nm). The note with it: α-glucosidase 0.2 U/mL, phosphate buffer pH 6.8, 37° C., PNPG substrate, IC50 calculated with SPSS, read-out: α-glucosidase inhibitory activity IC50. Format: biochemical. As to the method:
The concentration of pNP in the reaction solution, as measured by a plate reader, allows for the detection of the sample's ability to inhibit the activity of α-glucosidase. […] The mixture is then incubated at 37° C. for 15 minutes, after which 20 μL of PNPG solution (2.5 mM) is added. After a 15-minute reaction at 37° C., 80 μL of Na2CO3 solution (2.5 mM) is added, and the absorbance at 405 nm (ODtest) is measured using a plate reader. […] The formula for calculating the enzyme activity inhibition rate is as follows: [formula] The inhibitory effect of the tested monomers on α-glucosidase a gradient concentrations was used to calculate the IC50 values with SPSS.

Test [2] deals with α-glucosidase. The following applies: cited from earlier work.

On to `CC1OC(Oc2c(-c3cc(O)c(O)c(O)c3)oc3cc(O)cc(O)c3c2=O)C(OC(=O)c2cc(O)c(O)c(O)c2)C(O)C1O` [myricetin-3-O-(2″-galloyl)-α-L-rhamnoside], for which the pIC50 in test [1] was 5.88.
On to `CC1OC(Oc2c(-c3cc(O)c(O)c(O)c3)oc3cc(O)cc(O)c3c2=O)C(O)C(O)C1OC(=O)c1cc(O)c(O)c(O)c1` [myricetin-3-O-(4″-galloyl)-α-L-rhamnoside], for which the pIC50 was 4.81 in test [1] (listed as myricetin-3-O-(4″-O-galloyl)-α-L-rhamnoside) and 5.75 in test [1].
For the molecule `O=c1c(O)c(-c2cc(O)c(O)c(O)c2)oc2cc(O)cc(O)c12` [myricetin], the negative-log IC50 (pIC50) in test [1] was 5.75. Moreover, in test [2] (comparative study of 27 dietary flavonoids (Jia Y, et al., 2019)), the “rank of α-glucosidase inhibitory activity among 27 dietary flavonoids” value is given as “strongest inhibitor”. Also, the “rank of α-glucosidase inhibitory activity among 15 types of flavonoids” value in test [2] (report on 15 types of flavonoids (He C., et al., 2019)) was “strongest inhibitory effect”.
